Among the test systems are IGROV-1; OVCAR-4; NCI-H23; SF-539; HCC 2998; UACC-62; UO-31; A498; HCT-15; SN12C; EKVX; HT-29; HL-60; SF-295; NCI-H226; MCF7; SNB-75; LOX IMVI; OVCAR-5; HCT-116.
Common to all, as to assay: NCI anticancer screen, dose series, 48 h

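Test compounds were applied to cells in 96-well plates for 48 hours at 5 doses. GI50 = concentration required for 50% inhibition of growth.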 Active and inactive are the calls of the source. Cut-off read from the data, not from the text of the source: active = GI50 up to about 1.1 µM and inactive = higher.

For `[N-]=[N+]=CC(=O)CCC(N)C(=O)O` (configuration not stated), the GI50 was 1.92 µM (inactive) in the assay with IGROV-1; 29.9 µM (inactive) in the assay with OVCAR-4; 4.42 µM (inactive) with NCI-H23; 0.482 µM (active) in the assay on SF-539; 1.67 µM (inactive) in the assay with HCC 2998; 2.88 µM (inactive) in the assay on UACC-62. Also, the GI50 with UO-31 was 5.12 µM (inactive); in the assay with A498, 24.8 µM (inactive); in the assay on HCT-15, 0.815 µM; with SN12C it was 2.77 µM (inactive); with EKVX it was 4.83 µM (inactive); in the assay with HT-29, 0.385 µM (active). The GI50 with HL-60 is 1.72 µM (inactive); with SF-295, 1.28 µM (inactive); in the assay on NCI-H226, 39.6 µM (inactive); in the assay with MCF7, 0.474 µM (active); in the assay with SNB-75 it was 23.1 µM (inactive); in the assay on LOX IMVI, 0.689 µM (active). Further, the GI50 with OVCAR-5 is 4.86 µM (inactive).

In the case of `O=C1OC(C2Cc3ccc4c(c3C2=O)CCC4)c2ccccc21` (configuration not stated), the GI50 in the assay on IGROV-1 is 82.4 µM (inactive); in the assay on OVCAR-4, 38.1 µM (inactive); with NCI-H23 it was 55.2 µM (inactive); in the assay with SF-539, 28.2 µM (inactive); in the assay on HCC 2998 it was 37.4 µM (inactive); in the assay with UACC-62, 42.2 µM (inactive). The GI50 with UO-31 was 45.4 µM (inactive); with A498 it was 60.5 µM (inactive); with HCT-15, 39.1 µM; with SN12C, 36 µM (inactive); in the assay with EKVX, 51.2 µM (inactive); in the assay on HT-29, 52.8 µM (inactive). The GI50 in the assay with HL-60 is 27.4 µM (inactive); in the assay on SF-295, 59.6 µM (inactive); in the assay on NCI-H226, 26.1 µM (inactive); in the assay on MCF7, 50.1 µM (inactive); with SNB-75, 46 µM (inactive); in the assay on HCT-116, 45.6 µM (inactive). Besides, the GI50 with LOX IMVI was 34.9 µM (inactive); with OVCAR-5, 85.9 µM (inactive).

Turning to `Cc1ccc(C=C(C(=O)O)C(=O)O)o1`, the GI50 in the assay on IGROV-1, in the assay on NCI-H23, in the assay with SF-539, in the assay with HCC 2998, in the assay on UACC-62 and in the assay with UO-31 was > 100 µM (inactive) throughout. For the same molecule, the GI50 with A498 was > 100 µM (inactive); in the assay with HCT-15, above 100 µM; in the assay on SN12C it was > 100 µM (inactive); in the assay with EKVX, > 100 µM (inactive); with HT-29, > 100 µM (inactive); in the assay with HL-60 it was > 100 µM (inactive). Besides, the GI50 in the assay with SF-295, in the assay with NCI-H226, in the assay with MCF7, with SNB-75, in the assay on HCT-116 and in the assay with LOX IMVI was > 100 µM (inactive) in each case. Besides, the GI50 with OVCAR-5 was > 100 µM (inactive).

On to `Cn1c(=O)oc2cc(C(O)CN3CCN(Cc4ccc5c(c4)OCO5)CC3)ccc21` (configuration not stated), for which the GI50 in the assay on IGROV-1, in the assay on OVCAR-4, in the assay with NCI-H23, in the assay with SF-539, in the assay with HCC 2998 and in the assay with UACC-62 was > 100 µM (inactive) throughout. Moreover, the GI50 was > 100 µM (inactive) with UO-31; > 100 µM (inactive) in the assay on A498; above 100 µM in the assay with HCT-15; > 100 µM (inactive) in the assay with SN12C; > 100 µM (inactive) in the assay on EKVX; > 100 µM (inactive) in the assay on HT-29. Besides, the GI50 in the assay on HL-60 is > 100 µM (inactive); in the assay with SF-295 it was > 100 µM (inactive); with NCI-H226, > 100 µM (inactive); in the assay on MCF7, > 100 µM (inactive); in the assay on SNB-75, 47 µM (inactive); in the assay with HCT-116, > 100 µM (inactive). In addition, the GI50 in the assay with LOX IMVI and with OVCAR-5 was > 100 µM (inactive) in each case.

For `Oc1nc2c(c(-c3ccccc3Cl)n1)COC/C2=C\c1ccccc1Cl`, the GI50 with IGROV-1 is 43.9 µM (inactive); with OVCAR-4, > 100 µM (inactive); in the assay on NCI-H23, > 100 µM (inactive); in the assay with SF-539 it was > 100 µM (inactive); in the assay on HCC 2998, > 100 µM (inactive); in the assay on UACC-62 it was > 100 µM (inactive). Further, the GI50 is 80.9 µM (inactive) in the assay on UO-31; > 100 µM (inactive) in the assay on A498; above 100 µM in the assay with HCT-15; > 100 µM (inactive) in the assay with SN12C; 25.6 µM (inactive) with EKVX; > 100 µM (inactive) in the assay with HT-29. For the same molecule, the GI50 in the assay on HL-60 was 71.4 µM (inactive); in the assay with SF-295, 94.8 µM (inactive); in the assay with NCI-H226, > 100 µM (inactive); in the assay on MCF7 it was 65.9 µM (inactive); in the assay with SNB-75 it was 38.9 µM (inactive); with HCT-116, > 100 µM (inactive). The GI50 with LOX IMVI and in the assay with OVCAR-5 was > 100 µM (inactive) in each case.

As to `CCCCCCCCCCCCCCCCNc1nc(=O)n(C2CC(O)C(CO)O2)cc1F` (configuration not stated), the GI50 with IGROV-1 was 11.6 µM (inactive); in the assay with OVCAR-4, 15.7 µM (inactive); with NCI-H23, 4.85 µM (inactive); in the assay on SF-539, 0.284 µM (active); in the assay on HCC 2998, 0.071 µM (active); in the assay on UACC-62 it was 10.7 µM (inactive). The GI50 in the assay on UO-31 was 1.4 µM (inactive); with A498, > 10 µM (inactive); in the assay with HCT-15, 0.875 µM; in the assay with SN12C it was 12.5 µM (inactive); with EKVX, 14.6 µM (inactive); with HT-29, 9.84 µM (inactive). Further, the GI50 is 5.47 µM (inactive) in the assay with HL-60; 16.5 µM (inactive) with SF-295; 1.28 µM (inactive) in the assay on NCI-H226; 1.33 µM (inactive) with MCF7; 5.06 µM (inactive) in the assay with SNB-75; 8.26 µM (inactive) in the assay with HCT-116. Besides, the GI50 with LOX IMVI is 10.5 µM (inactive); in the assay on OVCAR-5 it was 18.2 µM (inactive).

With `CN(C)C(=O)/N=C1\SC(=N\c2ccccc2)/C(=N/c2ccccc2)N1c1ccc([N+](=O)[O-])cc1`, the GI50 with IGROV-1 was > 100 µM (inactive); with NCI-H23, > 100 µM (inactive); with HCC 2998, > 100 µM (inactive); in the assay with UACC-62 it was 77.4 µM (inactive); in the assay on UO-31, > 100 µM (inactive); with A498 it was > 100 µM (inactive). For the same molecule, the GI50 in the assay on HCT-15 was above 100 µM; in the assay on SN12C, > 100 µM (inactive); with HT-29, 52.4 µM (inactive); in the assay with HL-60 it was > 100 µM (inactive); in the assay with SF-295, > 100 µM (inactive); in the assay on NCI-H226, > 100 µM (inactive). The GI50 with MCF7 was 84.7 µM (inactive); in the assay with SNB-75, 41.6 µM (inactive); with HCT-116 it was > 100 µM (inactive); in the assay with OVCAR-5, > 100 µM (inactive).

As to `CSC1=C(SC)C(=O)c2cn(C)c(=O)cc2C1=O`, the GI50 was 11.1 µM (inactive) in the assay on IGROV-1; 1.97 µM (inactive) in the assay with OVCAR-4; 4.57 µM (inactive) with NCI-H23; 9.82 µM (inactive) with SF-539; 17.1 µM (inactive) in the assay with HCC 2998; 2.7 µM (inactive) with UACC-62. Further, the GI50 is 1.75 µM (inactive) with UO-31; 15.1 µM (inactive) with A498; 2.14 µM in the assay on HCT-15; 3.27 µM (inactive) in the assay with SN12C; 18.3 µM (inactive) in the assay on EKVX; 6.14 µM (inactive) in the assay with HT-29. Further, the GI50 with HL-60 is 0.0731 µM (active); in the assay with SF-295, 13 µM (inactive); in the assay with NCI-H226, 19.9 µM (inactive); with MCF7 it was 2.05 µM (inactive); in the assay with SNB-75 it was 8.67 µM (inactive); in the assay on HCT-116, 1.81 µM (inactive). For the same molecule, the GI50 with LOX IMVI was 1.78 µM (inactive); with OVCAR-5 it was 20.2 µM (inactive).

On to `CCOC(=O)CN1CCS/C1=N/C#N`, for which the GI50 was > 100 µM (inactive) in the assay on IGROV-1; > 100 µM (inactive) in the assay with OVCAR-4; > 87.5 µM (inactive) in the assay with NCI-H23; > 100 µM (inactive) in the assay on SF-539; > 100 µM (inactive) with HCC 2998; > 100 µM (inactive) in the assay with UACC-62. Besides, the GI50 in the assay with UO-31 is > 100 µM (inactive); in the assay on A498, > 100 µM (inactive); in the assay on HCT-15, above 100 µM; in the assay with SN12C, > 100 µM (inactive); with EKVX it was > 100 µM (inactive); in the assay on HT-29, > 42.4 µM (inactive). Further, the GI50 in the assay on HL-60 is > 100 µM (inactive); in the assay with NCI-H226, > 100 µM (inactive); in the assay with MCF7 it was > 100 µM (inactive); in the assay with SNB-75 it was > 100 µM (inactive); in the assay on HCT-116, > 100 µM (inactive); in the assay with OVCAR-5, 4.22 µM (inactive).

For the molecule `Nc1ncnc2c1nnn2C1OC(CO)C(O)C1O` (configuration not stated), the GI50 with IGROV-1 was 1.19 µM (inactive); in the assay on OVCAR-4, 8.85 µM (inactive); with NCI-H23, 7.82 µM (inactive); with SF-539 it was 9.14 µM (inactive); in the assay with HCC 2998, 1.83 µM (inactive); in the assay on UACC-62, 5.7 µM (inactive). In addition, the GI50 is 2.07 µM (inactive) with UO-31; 3.94 µM (inactive) in the assay on A498; 2.54 µM in the assay on HCT-15; 1.17 µM (inactive) in the assay with SN12C; 7.66 µM (inactive) in the assay on EKVX; 6.78 µM (inactive) in the assay on HT-29. In addition, the GI50 is 0.405 µM (active) in the assay with HL-60; 30.1 µM (inactive) in the assay on SF-295; 3.71 µM (inactive) with NCI-H226; 2.48 µM (inactive) with MCF7; 9.02 µM (inactive) with SNB-75; 1.9 µM (inactive) with HCT-116. In addition, the GI50 is 1.8 µM (inactive) in the assay on LOX IMVI and 4.37 µM (inactive) in the assay on OVCAR-5.

Take `CC(=O)Nc1ccc2oc(=O)c3ccccc3c2c1`: the GI50 in the assay on IGROV-1 was > 100 µM (inactive); in the assay with OVCAR-4 it was > 100 µM (inactive); with NCI-H23 it was > 100 µM (inactive); in the assay on SF-539, > 100 µM (inactive); with HCC 2998, > 100 µM (inactive); with UACC-62, 50.9 µM (inactive). Also, the GI50 in the assay on UO-31 is > 100 µM (inactive); in the assay with A498, > 100 µM (inactive); in the assay with HCT-15 it was above 100 µM; in the assay with SN12C, > 100 µM (inactive); in the assay with EKVX, > 100 µM (inactive); in the assay with HT-29, > 100 µM (inactive). Besides, the GI50 in the assay with HL-60, in the assay with SF-295, in the assay with NCI-H226, in the assay on MCF7, with SNB-75 and with HCT-116 was > 100 µM (inactive) throughout. For the same molecule, the GI50 with LOX IMVI and in the assay with OVCAR-5 was > 100 µM (inactive) in each case.

Values taken from ChEMBL document CHEMBL1201862, “PubChem BioAssay data set” (2004).
